SMILES strings stand for the structures.

In the experiment the test system is nerve-muscle co-culture. As to the kind of experiment: Muscle contraction frequency in nerve-muscle co-culture. It counts as cell-based, human, rat. Conditions: carisoprodol 5×10^−3M; for Contraction (%): % of contractions at T0; for Contraction (%) / Result: single wells. Here is the method:
The nerve-muscle co-culture model is a model suited to studying the influence of a substance on a muscle contraction frequency. The number of muscular contractions is counted during a given time, before and after applying the examined substance to the co-culture. The number of contractions in the presence of the substance is expressed in percentage compared to the initial number of contractions. An inhibitory effect on muscle contraction is determined if a significant reduction or blocking of the muscular contraction frequency is observed in at least 2 wells out of 3 wells containing the nerve-muscle co-culture.
Human muscular cells were seeded in 24-wells culture plates. Cells were incubated at 37° C., 5% CO2 during the entire culture duration.
After 5 days of culture, spinal cords were isolated from rat embryos, and were cut in small parts (explants). One explant per culture well was placed on the muscular cells, and both cell types were cultivated in 24-wells plate for 21 days.
During the cultivation period, the muscular cells merge and form muscular fibers. The motor neurons present in the spinal cord emit nervous extensions which contact the muscular fibers. Neuro-muscular junctions are formed and muscular contractions appear.
After 21 days of co-culture, the model was mature and functional. The muscular fibers innervated spontaneously and contracted in a regular way.
A stock solution of the test extract was prepared in the culture medium. This solution was applied to the nerve-muscle culture.
The culture medium alone served as a negative control.
The positive control was carisoprodol, a drug which blocks the muscular contraction in a reversible way. A stock solution of carisoprodol was prepared in DMSO at 1M. This solution was diluted at 1/200 into the culture medium (final concentration of 5×10^−3M). Three culture wells were used per treatment (control/test extract).
The trial started at the 21st day of the culture.
The microscope is equipped with a motorized stage piloted by a LUCIA software. It is also combined with a camera and connected to a computer allowing the recording of video sequences.
For each selected culture well, a muscle fiber showing regular contractions is referenced. The XY data of this fiber were registered using the LUCIA software. The frequency of the contractions of this fiber was manually counted during 30 seconds, and a video sequence was recorded (T0). The same operation was carried out for all wells.
The test extract and the references were applied to the nerve-muscle culture, and the trial system was incubated at 37° C., 5% CO2.
After 2 hours, 6 hours and 24 hours of incubation, the contraction frequency was counted again during 30 seconds and a video sequence was also recorded for each counting.
For each culture well, the number of muscular contractions counted in the presence of the examined extract is expressed in percentage compared to the number of contractions counted before extract application (T0).
When the frequency of contractions is in the range of between 80%-120% compared to T0, the modulation of the muscular contractions frequency is not considered as significant. This range is based on the fact that during the time, the muscular contraction frequency can vary slightly, independent on the conditions applied.
The results are expressed as follows: • No significant variation in the muscular contractions frequency: contractions percentage between 80 and 120%, symbolized by (=) • A significant reduction in the muscular contractions frequency: contractions percentage <80%, symbolized by (−). • Blocking of the muscular contractions frequencies: contractions percentage=0%, symbolized by (0) • A significant increase in the muscular contractions frequencies: contractions percentage >120%, symbolized by (+).
The product effect is assessed only if the same result is obtained in at least 2 out of 3 culture wells (i.e. 2 out of 3 muscle fibers).

On to `CCCC(C)(COC(N)=O)COC(=O)NC(C)C` (stereo not shown) [Carisoprodol, carisoprodol], for which the conclusion result is recorded as “Blocked” (2 h incubation); “complete blockage” (2 h incubation, listed as carisoprodol); “Blocked” (6 h incubation); “complete blockage” (6 h incubation, listed as carisoprodol); “Blocked” (24 h incubation); “complete blockage” (24 h incubation, listed as carisoprodol). Besides, the “Contraction (%)” value came out at 0% (2 h incubation), 0% (6 h incubation) and 0% (24 h incubation). The Result reads like this: (2 h incubation) 0 (Blocking of the muscular contractions frequencies: contractions percentage=0%); (6 h incubation) 0 (Blocking of the muscular contractions frequencies: contractions percentage=0%); (24 h incubation) 0 (Blocking of the muscular contractions frequencies: contractions percentage=0%). In addition, the “reversibility of the effect on muscle contractions after rinsing off” value (after rinsing off) is listed as “reversible”.
